Here are results for 17 molecules from patent US10640520B2, “Boronic acid derivatives” (MERCK PATENT GMBH, priority 2014, dated 2020).

Bounds are passed on as bounds.

The target of one experiment is LMP7 (Homo sapiens, UniProt P20618+P28062). Briefly: Determination of LMP7 activity (fluorescence intensity assay, Suc-LLVY-AMC). In kind it is biochemical. The note with it: purified human immunoproteasome. The procedure:
Determination of LMP7 Activity:
Measurement of LMP7 inhibition is performed in 384 well format based on fluorescence intensity assay.
(§1) Purified human immunoproteasome (0.25 nM) and serial diluted compounds in DMSO (range of concentrations from 30 μM to 15 pM) or controls are incubated for 20 minutes or 120 minutes (long incubation) at 25° C. in assay buffer containing 50 mM Tris pH 7.4, 0.03% SDS, 1 mM EDTA and 1% DMSO. The reaction is initiated by the addition of the fluorogenic peptide substrate, Suc-LLVY-AMC (Bachem 1-1395), at a concentration of 40 μM. After 60 minutes of incubation at 37° C., fluorescence intensity is measured at λex=350 nm and λem=450 nm with a fluorescence reader (Perkin Elmer Envision reader or equivalent).
(§2) Unless indicated otherwise the results are obtained after incubation for 20 minutes.

A further experiment has as its target Beta5 (Homo sapiens, UniProt P20618+P28074). Briefly: Determination of Beta5 activity (fluorescence intensity assay, Suc-LLVY-AMC). The experiment is classed as biochemical. The note with it: for IC50: purified human constitutive proteasome. The protocol: Determination of Beta5 Activity:
Measurement of Beta5 inhibition is performed in 384 well format based on fluorescence intensity assay.
as §1, with “constitutive proteasome (1.25” for “immunoproteasome (0.25”, “[…])” for “pM)”
as §2

For experiment [1], the target named is LMP7 subunit of the immunoproteasome (Homo sapiens, UniProt P20618+P28062). The note with it: Singh et al., Br. J. Hematology 152(2): 155-163; cited from earlier work.

A word on the IC50: it is the point on the concentration scale where inhibition reaches its midpoint. Low readings indicate greater potency, high ones weaker potency. In the case of `Cc1ccc(C[C@H](NC(=O)CCN2CCCCC2=O)B(O)O)cc1C` [Compound 25, [(1R)-2-(3,4-dimethylphenyl)-1-[3-(2-oxo-1-piperidyl)propanoylamino]-ethyl]boronic acid], the IC50 against LMP7 (incubation for 20 minutes) was below 50 nM. At Beta5 (incubation for 20 minutes), the “Selectivity LMP7 vs Beta5” value was “+++++ (Selectivity ≥ 70)” and the half-inhibitory concentration (IC50) was 500 to 5000 nM.

Turning to `O=C(CCN1CCCCS1(=O)=O)N[C@@H](Cc1coc2ccccc12)B(O)O` [Compound 26, [(1R)-2-(benzofuran-3-yl)-1-[3-(1,1-dioxothiazinan-2-yl)propanoylamino]ethyl]boronic acid], the IC50 against LMP7 (incubation for 20 minutes) was below 50 nM. Moreover, at Beta5 (incubation for 20 minutes), the “Selectivity LMP7 vs Beta5” value is “+++ (30 ≤ Selectivity < 50)” and the IC50 fell in the range of 50 to 500 nM.

The molecule `CC1(C)CCC(=O)N1CCC(=O)N[C@@H](Cc1coc2ccccc12)B(O)O` [Compound 27, [(1R)-2-(benzofuran-3-yl)-1-[3-(2,2-dimethyl-5-oxo-pyrrolidin-1-yl)propanoylamino]ethyl]boronic acid] came in with an IC50 against LMP7 (incubation for 20 minutes) below 50 nM. Besides, on Beta5 (incubation for 20 minutes), the “Selectivity LMP7 vs Beta5” value is on record as “+++++ (Selectivity ≥ 70)” and the half-inhibitory concentration (IC50) fell in the range of 500 to 5000 nM.

With `O=C(CCN1CCOCC1=O)N[C@@H](Cc1coc2ccccc12)B(O)O` [Compound 28, [(1R)-2-(benzofuran-3-yl)-1-[3-(3-oxomorpholin-4-yl)propanoylamino]-ethyl]boronic acid], the 50% inhibitory concentration (IC50) at LMP7 (incubation for 20 minutes) is below 50 nM. Further, at Beta5 (incubation for 20 minutes), the “Selectivity LMP7 vs Beta5” value is given as “++ (10 ≤ Selectivity < 30)” and the IC50 fell in the range of 50 to 500 nM.

`O=C(CCN1CC(c2ccccc2)OC1=O)N[C@@H](Cc1coc2ccccc12)B(O)O` (stereo partly drawn) [Compound 29, [(1R)-2-(benzofuran-3-yl)-1-[3-(2-oxo-5-phenyl-oxazolidin-3-yl)propanoylamino]ethyl]boronic acid] returned an IC50 on LMP7 (incubation for 20 minutes) below 50 nM. Moreover, at Beta5 (incubation for 20 minutes), the “Selectivity LMP7 vs Beta5” value is listed as “++ (10 ≤ Selectivity < 30)” and the 50% inhibitory concentration (IC50) is below 50 nM.

Turning to `O=C(CCN1CCCOC1=O)N[C@@H](Cc1coc2ccccc12)B(O)O` [Compound 30, [(1R)-2-(benzofuran-3-yl)-1-[3-(2-oxo-1,3-oxazinan-3-yl)propanoylamino]ethyl]boronic acid], the figures for the IC50 at LMP7 (incubation for 20 minutes) and against Beta5 (incubation for 20 minutes) were below 50 nM and 50 to 500 nM, respectively. Also, on Beta5 (incubation for 20 minutes), the “Selectivity LMP7 vs Beta5” value is listed as “+++ (30 ≤ Selectivity < 50)”.

As to `Cc1ccc(C[C@H](NC(=O)CCN2CCCCC2=O)B(O)O)c(C)c1` [Compound 31, [(1R)-2-(2,4-dimethylphenyl)-1-[3-(2-oxo-1-piperidyl)propanoylamino]-ethyl]boronic acid], the concentration for half-maximal inhibition (IC50) was below 50 nM against LMP7 (incubation for 20 minutes) and 500 to 5000 nM against Beta5 (incubation for 20 minutes). The “Selectivity LMP7 vs Beta5” value at Beta5 (incubation for 20 minutes) is recorded as “+++++ (Selectivity ≥ 70)”.

`Cc1ccc(C[C@H](NC(=O)CCN2CCCCS2(=O)=O)B(O)O)c(C)c1` [Compound 32, [(1R)-2-(2,4-dimethylphenyl)-1-[3-(1,1-dioxothiazinan-2-yl)propanoylamino]ethyl]boronic acid]: the IC50 against LMP7 (incubation for 20 minutes) was below 50 nM. Moreover, on Beta5 (incubation for 20 minutes), the “Selectivity LMP7 vs Beta5” value is recorded as “+++ (30 ≤ Selectivity < 50)” and the IC50 lay within 500 to 5000 nM.

Consider `O=C(CN1C(=O)CSC1=O)N[C@@H](Cc1coc2ccccc12)B(O)O` [Compound 33, [(1R)-2-(benzofuran-3-yl)-1-[[2-(2,4-dioxothiazolidin-3-yl)acetyl]-amino]ethyl]boronic acid], for which the values for the IC50 against LMP7 (incubation for 20 minutes) and on Beta5 (incubation for 20 minutes) were below 50 nM and 50 to 500 nM, respectively. Moreover, the “Selectivity LMP7 vs Beta5” value on Beta5 (incubation for 20 minutes) is recorded as “++ (10 ≤ Selectivity < 30)”.

As to `CCN1CCN(CCC(=O)N[C@@H](Cc2coc3ccccc23)B(O)O)C(=O)C1=O` [Compound 34, [(1R)-2-(benzofuran-3-yl)-1-[3-(4-ethyl-2,3-dioxo-piperazin-1-yl)propanoylamino]ethyl]boronic acid], the IC50 was below 50 nM on LMP7 (incubation for 20 minutes) and 50 to 500 nM against Beta5 (incubation for 20 minutes). The “Selectivity LMP7 vs Beta5” value at Beta5 (incubation for 20 minutes) was “++ (10 ≤ Selectivity < 30)”.

On to `CN1CCN(CCC(=O)N[C@@H](Cc2coc3ccccc23)B(O)O)C(=O)C1` [Compound 35, [(1R)-2-(benzofuran-3-yl)-1-[3-(4-methyl-2-oxo-piperazin-1-yl)propanoylamino]ethyl]boronic acid], for which, at LMP7 (incubation for 20 minutes), the IC50 was below 50 nM. Moreover, at Beta5 (incubation for 20 minutes), the “Selectivity LMP7 vs Beta5” value was “++ (10 ≤ Selectivity < 30)” and the IC50 is 50 to 500 nM.

`Cc1ccc(C[C@H](NC(=O)C2CCC(=O)N2c2ccccc2)B(O)O)c(C)c1` (stereo partly drawn) [Compound 36, [(1R)-2-(2,4-dimethylphenyl)-1-[(5-oxo-1-phenyl-pyrrolidine-2-carbonyl)amino]-ethyl]boronic acid] showed a 50% inhibitory concentration (IC50) against LMP7 (incubation for 20 minutes) of 50 to 500 nM. At Beta5 (incubation for 20 minutes), the “Selectivity LMP7 vs Beta5” value is “+++ (30 ≤ Selectivity < 50)” and the IC50 was 500 to 5000 nM.

At LMP7 (incubation for 20 minutes), `O=C(N[C@@H](Cc1coc2ccccc12)B(O)O)C1CCCN1c1ccccc1` (stereo partly drawn) [Compound 37, [(1R)-2-(benzofuran-3-yl)-1-[(1-phenylpyrrolidine-2-carbonyl)amino]ethyl]boronic acid] yielded an IC50 below 50 nM. At Beta5 (incubation for 20 minutes), the “Selectivity LMP7 vs Beta5” value is on record as “+++++ (Selectivity ≥ 70)” and the IC50 lay within 500 to 5000 nM.

At LMP7 (long incubation (120 min)), `Cc1cccc2c(C[C@H](NC(=O)CCN3C(=O)CCC3(C)C)B(O)O)coc12` [Compound 38, [(1R)-1-[3-(2,2-dimethyl-5-oxo-pyrrolidin-1-yl)propanoylamino]-2-(7-methylbenzofuran-3-yl)ethyl]boronic acid] came in with an IC50 below 50 nM. Besides, at Beta5 (long incubation (120 min)), the “Selectivity LMP7 vs Beta5” value was “+++++ (Selectivity ≥ 70)” and the concentration for half-maximal inhibition (IC50) lay in the range of 500 to 5000 nM.

`O=C(CCN1CCCC1=O)N[C@@H](C[C@@H]1COc2ccccc21)B(O)O` [Compound 39, [(1R)-2-[(3S)-2,3-dihydrobenzofuran-3-yl]-1-[3-(2-oxopyrrolidin-1-yl)propanoylamino]ethyl]boronic acid] gave an IC50 on LMP7 (long incubation (120 min)) below 50 nM. On Beta5 (long incubation (120 min)), the “Selectivity LMP7 vs Beta5” value is given as “+++++ (Selectivity ≥ 70)” and the IC50 was in the range of 500 to 5000 nM.

Take `Cc1cccc2c1OC[C@H]2C[C@H](NC(=O)CCN1CCCCC1=O)B(O)O` [Compound 40, [(1R)-2-[(3S)-7-methyl-2,3-dihydrobenzofuran-3-yl]-1-[3-(2-oxo-1-piperidyl)propanoylamino]ethyl]boronic acid]: the half-inhibitory concentration (IC50) against LMP7 (long incubation (120 min)) is below 50 nM. For the same molecule, at Beta5 (long incubation (120 min)), the “Selectivity LMP7 vs Beta5” value is listed as “+++++ (Selectivity ≥ 70)” and the IC50 is above 5000 nM.

As for `CC1=C(C(=O)N[C@H](C)C(=O)N[C@@H](Cc2c[nH]c3ccccc23)C(=O)N[C@@H](Cc2ccccc2)C(=O)[C@@]2(C)CO2)Cc2ccccc21` [PR-924], the “selectivity for the LMP7 subunit of the immunoproteasome” value in experiment [1] is given as 100 fold.
